Like-named read-outs stand apart in the source and are kept apart here.
Key:
[1] = test system: U−2 OS cells; assay: MTT cell proliferation assay, U−2 OS cells; assay type: cell-based; settings: Homo sapiens, U2OS
Protocol: The effects of tanshinones (DS−1 to DS−5) on the proliferation of U−2 OS cells, HeLa cells, and NRK−49F cells were measured by the classical MTT method with minor modifications as follows. Cells were seeded at 5000 per well in 96-well plates, with each group being repeated in 5 wells, and were incubated for 12 h. DS−1 to DS−5 were added at gradient concentrations, then incubated for 24 and 48 h, respectively. Then, 20 μL MTT solution (solved in PBS, 5 mg/mL) was added to every well, and the cells were further incubated at 37 °C for 4 h until a purple precipitate was visible. The plate was centrifuged at 1000 rpm for 1 min; the supernatant was suctioned, and 150 μL of DMSO was added per well; the plate was shaken on a shaker protected from light for 15 min. We placed the plate in an enzyme marker and measured the absorbance values at a 490 nm wavelength.

[2] = test system: snail; assay: RT-PCR snail mRNA in U−2 OS cells; assay type: cell-based, human; settings: 24 h
Protocol: (§1) Total RNA within cells was extracted by the RNAeasy™ Animal Long RNA Isolation Kit with Spin Column (Shanghai, Beyotime); the concentrations and OD260/OD280 and OD230/OD260 values were measured by NanoDrop. Five micrograms of RNA was used for reverse transcription; each sample was diluted to 16 μL, and 4 μL of synthesized premix solution (5×) was added, then the mixtures were placed in a 42 °C water bath for 10 min, then an 80 °C water bath for 10 min to deactivate reverse transcriptase. After reverse transcription, each sample was diluted to 140 μL. PCR amplification was carried out by the ABI700 real-time PCR system, and the amplification reaction was detected with a SYBR probe. After PCR, actin and GAPDH were used as internal references, and the relative standard curve method (2^−ΔΔcT) determined the relative expression of mRNA.

[3] = test system: vimentin; assay: RT-PCR vimentin mRNA in U−2 OS cells; assay type: cell-based, human; settings: 24 h
Protocol: as §1

[4] = test system: NRK−49F cells; assay: Cell adhesion against trypsin digestion, NRK−49F cells; assay type: cell-based, rat; settings: DS-1 6.25, 12.5 μM for 24 h
[5] = test system: U−2 OS cells; assay: Length of actin protrusions (Image J); assay type: cell-based, human; settings: DS−1 for 24 h
Protocol: Figure 8 CD44 knockdown reduced cell adhesion by shortening cell protrusions. (A) U−2 OS cells transfected with CD44 siRNA and no siRNA were seeded into a 24-well plate treated with 7.5 μM DS−1 for 24 h, and the expression of CD44 was detected by immunofluorescence. (B) CD44 expression of U−2 OS cells was detected by Western blotting after being treated with siRNA for 0, 24, and 36 h. (C) U−2 OS cells were first transfected with/without CD44 siRNA and then treated with DS−1 for 24 h, and its actin morphologies were detected. The representative magnified actin morphologies are listed in (D). (E) The lengths of protrusions in (C) were analyzed by Image J and are shown in a scatterplot graph. The lengths of 20 protrusions from actin in (C) were calculated. Each value is the average of 20 lengths of protrusions, ** p < 0.01, *** p < 0.005. (F) U−2 OS cells were transfected with CD44 siRNA, then treated with 0 and 7.5 μM DS−1 for 24 h and digested with trypsin at 25 °C; the digestion time was recorded by a microscope, and photos were taken every 30 s. The percentage of digested cells is recorded in (G).
Actin promotes the formation of protrusions around the cells. After CD44 knockdown and DS−1 treatment, the morphology of actin was observed. The average length of protrusions was measured by Image J [59]. […]

[6] = test system: CXCL8; assay: RT-PCR CXCL8 mRNA in U−2 OS cells; assay type: cell-based, human; settings: 24 h
Protocol: as §1

[7] = test system: AKT; assay: Western blot AKT; assay type: cell-based, human; settings: DS−1 2.5, 5.0, and 7.5 µM, 24 h
Protocol: (§2) Sample preparation: U−2 OS cells seeded in 10 cm Petri dishes were collected and washed with ice-cold PBS and RIPA lysis buffer with PMAF; phosphatase inhibitor was added, and the tubes were placed on ice for 30 min and vortexed for 30 s at intervals of 10 min. The samples were centrifuged at 12,000 g at 4 °C for 15 min, and the supernatants were collected in new centrifuge tubes. The protein samples were placed on ice, and the concentration of each protein sample was measured by the BCA kit (Thermo). The protein concentration was adjusted to the same by milli Q ultrapure water.
(§3) Loading and running the gel: Equal amounts of protein were loaded into the wells of the 10% SDS-PAGE gel, along with molecular weight markers, and 15 μg of total protein from the cell lysate was loaded. We then ran the gel for 45 min at 200 V.
(§4) Transferring the protein: We prepared the transfer stack as follows: negative plate, sponge, filter paper, gel, PVDF membrane, filter paper, sponge, and positive plate. The transfer was for 90 min at 200 mA.
Antibody staining: We blocked the membrane for 1 h at room temperature using 5% blocking solution, then incubated the membrane with appropriate dilutions of the primary antibody in the blocking solution overnight at 4 °C. […] Images were acquired using darkroom development techniques for chemiluminescence and analyzed by Image J.

[8] = test system: pAKT; assay: Western blot pAKT; assay type: cell-based, human; settings: 24 h
Protocol: as §2, §3, §4
(§5) Antibody staining: We blocked the membrane for 1 h at room temperature using 5% blocking solution, then incubated the membrane with appropriate dilutions of the primary antibody in the blocking solution overnight at 4 °C. We then washed the membrane with TBST reagent 3 times, 5 min each. Then, we incubated the membrane with the recommended dilution of labeled secondary antibody in blocking solution at room temperature for 1 h and washed the membrane with TBST reagent 3 times, 5 min each. For signal development, super-enhanced chemiluminescence detection reagents were added to the surface of the membrane for 1 min, then excess reagent was removed, and the membrane was covered in transparent plastic wrap. Images were acquired using darkroom development techniques for chemiluminescence and analyzed by Image J.

[9] = test system: IL6; assay: RT-PCR IL6 mRNA in U−2 OS cells; assay type: cell-based, human; settings: 24 h
Protocol: as §1

[10] = test system: phospho-STAT3; assay: Western blot phospho-STAT3; assay type: cell-based, human; settings: 24 h
Protocol: as §2, §3, §4, §5

SMILES: Cc1cccc2c3c(ccc12)C1=C(C(=O)C3=O)[C@@H](C)CO1 [DS−1, 15,16-Dihydrotanshinone I]
- IC50 ([1]; 24 h, read-out: IC50 U−2 OS cells (24 h)): 3.83 ± 0.49 µM
- IC50 ([1]; 48 h, read-out: IC50 U−2 OS cells (48 h)): 1.99 ± 0.37 µM
- snail mRNA, fold of the control group ([2]; DS−1 5.0 µM): 0.46 ± 0.05 fold
- snail mRNA, fold of the control group ([2]; DS−1 7.5 µM): 0.39 ± 0.03 fold
- vimentin mRNA, fold of the control group ([3]; DS−1 2.5 µM): 0.67 ± 0.11 fold
- vimentin mRNA, fold of the control group ([3]; DS−1 5.0 µM): 0.51 ± 0.11 fold
- vimentin mRNA, fold of the control group ([3]; DS−1 7.5 µM): 0.12 ± 0.16 fold
- cell adhesion on the cell culture plate against trypsin digestion [4]: stronger cell adhesion
- average length of protrusions ([5]; CD44 knockdown group, knockdown without DS−1 0.203 ± 0.056 μm): 0.213 ± 0.061 μm
- average length of protrusions ([5]; no CD44 siRNA, control 0.307 ± 0.097 μm): 0.403 ± 0.103 μm
- CXCL8 mRNA, fold ([6]; DS−1 2.5 µM): 1.49 ± 0.10 fold
- CXCL8 mRNA, fold ([6]; DS−1 5.0 µM): 3.34 ± 0.49 fold
- CXCL8 mRNA, fold ([6]; DS−1 7.5 µM): 3.71 ± 0.53 fold
- expression of AKT [7]: no significant change
- pAKT, fold of the control group ([8]; DS−1 5.0 µM): 2.06 ± 0.08 fold
- pAKT, fold of the control group ([8]; DS−1 7.5 µM): 2.10 ± 0.15 fold
- pAKT/AKT value ([8]; with the concentration of DS−1 (2.5, 5.0, 7.5 µM)): increased
- IL6 mRNA, fold ([9]; DS−1 2.5 µM): 0.81 ± 0.09 fold
- IL6 mRNA, fold ([9]; DS−1 5.0 µM): 0.51 ± 0.07 fold
- IL6 mRNA, fold ([9]; DS−1 7.5 µM): 0.42 ± 0.12 fold
- phospho-STAT3, fold of the control group ([10]; DS−1 2.5 µM): 0.59 ± 0.09 fold
- phospho-STAT3, fold of the control group ([10]; DS−1 5.0 µM): 0.43 ± 0.03 fold
- phospho-STAT3, fold of the control group ([10]; DS−1 7.5 µM): 0.32 ± 0.03 fold
- ratio of pSTAT3/STAT3 ([10]; DS−1 2.5, 5.0, and 7.5 µM): significantly decreased

Reference: PMC9231138, “Dihydrotanshinone I Enhances Cell Adhesion and Inhibits Cell Migration in Osteosarcoma U−2 OS Cells through CD44 and Chemokine Signaling” (Molecules, 2022)
